Here are results for 15 compounds from US9199945B2, “Cycloalkyl-substituted pyrimidinedione compounds” (MyoKardia, Inc., priority 2013, dated 2015).

Some results are limits rather than exact numbers.

What is called inhibition is the relative decrease from the control value, in per cent.

T1 sequence (Q9BE39 whole entry): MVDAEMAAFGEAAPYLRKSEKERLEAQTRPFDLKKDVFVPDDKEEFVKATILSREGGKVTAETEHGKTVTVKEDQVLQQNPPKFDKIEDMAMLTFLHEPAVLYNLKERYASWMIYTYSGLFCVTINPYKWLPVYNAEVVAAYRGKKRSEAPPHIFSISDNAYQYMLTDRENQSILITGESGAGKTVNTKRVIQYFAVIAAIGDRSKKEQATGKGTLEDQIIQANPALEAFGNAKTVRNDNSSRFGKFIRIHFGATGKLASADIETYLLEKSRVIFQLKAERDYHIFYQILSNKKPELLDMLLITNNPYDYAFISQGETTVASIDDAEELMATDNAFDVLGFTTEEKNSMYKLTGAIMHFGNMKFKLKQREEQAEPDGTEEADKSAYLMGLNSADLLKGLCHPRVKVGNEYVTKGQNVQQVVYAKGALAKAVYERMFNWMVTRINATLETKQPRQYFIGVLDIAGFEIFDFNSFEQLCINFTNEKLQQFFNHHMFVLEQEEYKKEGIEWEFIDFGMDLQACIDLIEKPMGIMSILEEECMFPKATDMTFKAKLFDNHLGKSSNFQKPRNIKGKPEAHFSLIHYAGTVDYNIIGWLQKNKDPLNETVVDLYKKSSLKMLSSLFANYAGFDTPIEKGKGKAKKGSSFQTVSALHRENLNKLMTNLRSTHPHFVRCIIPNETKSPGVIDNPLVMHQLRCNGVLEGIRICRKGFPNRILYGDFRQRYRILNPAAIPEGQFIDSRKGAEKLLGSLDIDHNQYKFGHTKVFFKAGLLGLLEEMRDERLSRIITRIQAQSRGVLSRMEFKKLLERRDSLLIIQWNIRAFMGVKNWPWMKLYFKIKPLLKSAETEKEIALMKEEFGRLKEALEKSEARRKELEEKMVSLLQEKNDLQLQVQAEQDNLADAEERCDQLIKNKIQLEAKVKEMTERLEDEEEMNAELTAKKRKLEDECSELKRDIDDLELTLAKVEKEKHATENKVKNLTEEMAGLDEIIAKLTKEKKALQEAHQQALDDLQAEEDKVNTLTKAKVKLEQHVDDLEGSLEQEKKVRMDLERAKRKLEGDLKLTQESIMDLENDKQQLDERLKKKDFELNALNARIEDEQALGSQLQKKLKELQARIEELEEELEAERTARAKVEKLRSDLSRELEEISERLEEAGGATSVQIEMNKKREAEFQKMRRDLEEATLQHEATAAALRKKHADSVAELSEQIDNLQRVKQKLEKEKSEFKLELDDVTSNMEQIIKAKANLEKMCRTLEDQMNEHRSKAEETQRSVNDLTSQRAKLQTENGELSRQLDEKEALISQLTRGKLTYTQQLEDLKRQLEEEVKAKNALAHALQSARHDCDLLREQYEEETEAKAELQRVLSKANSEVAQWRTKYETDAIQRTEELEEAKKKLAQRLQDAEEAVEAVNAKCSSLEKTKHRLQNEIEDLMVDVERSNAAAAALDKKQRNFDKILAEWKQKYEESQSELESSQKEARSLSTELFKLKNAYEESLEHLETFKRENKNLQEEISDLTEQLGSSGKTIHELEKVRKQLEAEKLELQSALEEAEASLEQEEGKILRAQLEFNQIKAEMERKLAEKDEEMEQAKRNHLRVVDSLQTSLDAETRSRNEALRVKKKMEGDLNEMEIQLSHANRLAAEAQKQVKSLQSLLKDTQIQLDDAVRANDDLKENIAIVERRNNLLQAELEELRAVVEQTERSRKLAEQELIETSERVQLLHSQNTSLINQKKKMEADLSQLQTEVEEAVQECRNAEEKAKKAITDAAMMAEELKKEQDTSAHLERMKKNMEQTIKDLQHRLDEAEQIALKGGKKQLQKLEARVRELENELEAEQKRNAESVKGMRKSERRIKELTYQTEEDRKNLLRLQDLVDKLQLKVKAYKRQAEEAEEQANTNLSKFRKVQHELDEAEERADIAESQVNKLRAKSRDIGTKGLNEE
T1 sequence (P85100 whole entry partner): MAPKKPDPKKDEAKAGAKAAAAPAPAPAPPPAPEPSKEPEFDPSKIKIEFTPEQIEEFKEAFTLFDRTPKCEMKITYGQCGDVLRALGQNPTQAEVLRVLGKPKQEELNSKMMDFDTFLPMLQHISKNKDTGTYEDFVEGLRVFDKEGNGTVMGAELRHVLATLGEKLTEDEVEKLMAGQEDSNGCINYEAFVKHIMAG
T1 sequence (Q3SZE5 whole entry partner): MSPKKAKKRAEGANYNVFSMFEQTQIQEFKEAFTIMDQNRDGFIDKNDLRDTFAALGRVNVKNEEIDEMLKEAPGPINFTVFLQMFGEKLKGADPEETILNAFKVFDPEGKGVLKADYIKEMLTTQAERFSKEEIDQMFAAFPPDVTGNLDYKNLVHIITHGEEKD

One assay has as its target T1, bovine cardiac myosin (Bos taurus, UniProt Q9BE39).
T1 construct: The source of cardiac myosin was from bovine heart in the form of skinned myofibrils; from tissue; host or cells: bovine heart (skinned myofibrils)
Description: Myosin inhibition assay (PK/LDH-coupled ATPase, bovine cardiac myofibrils). Format: biochemical. Conditions: calcium concentration giving 50% activation (pCa50), read-out: Biochemical Activity (pCa50). The protocol:
Small molecule agents were assessed for their ability to inhibit the enzymatic activity of bovine cardiac myosin using a biochemical assay that couples the release of ADP (adenosine diphosphate) from cardiac myosin to an enzymatic coupling system consisting of pyruvate kinase and lactate dehydrogenase (PK/LDH) and monitoring the absorbance decrease of NADH (at 340 nm) as a function of time. PK converts ADP to ATP (adenosine triphosphate) by converting PEP (phosphoenolpyruvate) to pyruvate. Pyruvate is then converted to lactate by LDH by converting NADH (nicotinamide adenine dinucleotide) to NAD (oxidized nicotinamide adenine dinucleotide). The source of cardiac myosin was from bovine heart in the form of skinned myofibrils. Prior to testing small molecule agents, the bovine myofibrils were assessed for their calcium responsiveness and the calcium concentration that achieves either a 50% (pCa50) or 75% (pCa75) activation of the myofibril system was chosen as the final condition for assessing the inhibitory activity of the small molecule agents. All enzymatic activity was measured in a buffered solution containing 12 mM PIPES (piperazine-N,N′-bis(2-ethanesulfonic acid), 2 mM magnesium chloride at pH 6.8 (PM12 buffer). Final assay conditions were 1 mg/mL of bovine cardiac myofibrils, 0.4 mM PK/LDH, 50 uM ATP, 0.1 mg/mL BSA (bovine serum albumin), 10 ppm antifoam, 1 mM DTT, 0.5 mM NADH, 1.5 mM PEP at the desired free calcium concentration required to achieve either 50% or 75% activation of the myofibrils.
A dilution series of compound was created in DMSO such that the final desired concentration of compound would be achieved in a volume of 100 μL with a fixed DMSO concentration of 2% (v/v). Typically 2 μL of the dilution series were added to 96 well plate to achieve an 8 or 12 point dose response. Following the addition of 50 μL of a solution containing bovine cardiac myofibrils, PK/LDH and a solution of calcium (that achieved the desired activation), the enzymatic reaction was started with the addition of 50 μL of a solution containing ATP, PEP and NADH. The reaction progress was followed in a Molecular Devices M5e plate reader at ambient temperature using clear half area plates. The plate reader was configured to read absorbance at 340 nm in kinetics mode for 15 minutes. Data were recorded as the slope of the absorbance response to time. The slopes of the absorbance response as a function of time were normalized to slopes on the plate containing DMSO. This normalized rate was then plotted as a function of small molecule concentration and the data was fitted to a four-parameter fit using GraphPad Prism. The midpoint of this plot is the IC50 and is the concentration at which fifty percent of the total response is inhibited.
Consider `C[C@@H](CC1CCC(F)(F)CC1)Nc1cc(=O)n(-c2cc(F)cc(F)c2)c(=O)[nH]1` [Compound 11, (S)-6-((1-(4,4-difluorocyclohexyl)propan-2-yl)amino)-3-(3,5-difluorophenyl)pyrimidine-2,4(1H,3H)-dione], for which the IC50 is below 1000 nM. Turning to `C[C@@H](CC1CC(F)(F)C1)Nc1cc(=O)n(-c2cc(F)cc(F)c2)c(=O)[nH]1` [Compound 12, (S)-6-((1-(3,3-difluorocyclobutyl)propan-2-yl)amino)-3-(3,5-difluorophenyl)pyrimidine-2,4(1H,3H)-dione], the IC50 was in the range of 1000 to 15000 nM.

The assay is the same for the next values; noted with them: calcium concentration giving 75% activation (pCa75), read-out: Biochemical Activity (pCa75).
With `CC(C)n1c(=O)cc(NCC2CCCCC2)[nH]c1=O` [Compound 1, 6-((cyclohexylmethyl)amino)-3-isopropylpyrimidine-2,4(1H,3H)-dione], the IC50 lay within 1000 to 15000 nM. On to `CC(C)n1c(=O)cc(NCC2CCCC2)[nH]c1=O` [Compound 2, 6-((Cyclopentylmethyl)amino)-3-isopropylpyrimidine-2,4(1H,3H)-dione], for which the IC50 was above 15000 nM. On the same count and under the same terms, to `CC(C)n1c(=O)cc(N[C@@H](C)CC2CCC(F)(F)CC2)[nH]c1=O` [Compound 3, (S)-6-((1-(4,4-Difluorocyclohexyl)propan-2-yl)amino)-3-isopropylpyrimidine-2,4(1H,3H)-dione] belongs below 1000 nM; to `C[C@H](Nc1cc(=O)n(C2CCOCC2)c(=O)[nH]1)C1CCC(F)(F)CC1` [Compound 4, (S)-6-((1-(4,4-difluorocyclohexyl)ethyl)amino)-3-(tetrahydro-2H-pyran-4-yl)pyrimidine-2,4(1H,3H)-dione], 1000 to 15000 nM. Same read-out and setting: under `CC(C)n1c(=O)[nH]c(N[C@@H](C)C2CCC(F)(F)CC2)c(F)c1=O` [Compound 5, (S)-6-((1-(4,4-difluorocyclohexyl)ethyl)amino)-5-fluoro-3-isopropylpyrimidine-2,4(1H,3H)-dione] stands below 1000 nM; under `CC(C)n1c(=O)cc(N[C@@H](C)C2CCCCC2)[nH]c1=O` [Compound 6, (S)-6-((1-cyclohexylethyl)amino)-3-isopropylpyrimidine-2,4(1H,3H)-dione], below 1000 nM. Take `CC(C)n1c(=O)cc(NCC2CCC2)[nH]c1=O` [Compound 7, 6-((cyclobutylmethyl)amino)-3-isopropylpyrimidine-2,4(1H,3H)-dione]: the IC50 is above 15000 nM.

Turning to `CC(C)n1c(=O)cc(NCC2CCCCCC2)[nH]c1=O` [Compound 8, 6-((cycloheptylmethyl)amino)-3-isopropylpyrimidine-2,4(1H,3H)-dione], the IC50 was below 1000 nM. Still for that read-out and setting: under `CC(C)n1c(=O)cc(N[C@@H](C)C2CCC(F)(F)CC2)[nH]c1=O` [Compound 9, (S)-6-((1-(4,4-difluorocyclohexyl)ethyl)amino)-3-isopropylpyrimidine-2,4(1H,3H)-dione] stands below 1000 nM. On the same count and under the same terms, to `CC(C)n1c(=O)cc(N[C@@H](C)CC2CC(F)(F)C2)[nH]c1=O` [Compound 10, (S)-6-((1-(3,3-difluorocyclobutyl)propan-2-yl)amino)-3-isopropylpyrimidine-2,4(1H,3H)-dione] belongs 1000 to 15000 nM; to `CC(C)n1c(=O)cc(NCCC2CCOCC2)[nH]c1=O` [Compound 13, 3-isopropyl-6-((2-(tetrahydro-2H-pyran-4-yl)ethyl)amino) pyrimidine-2,4(1H,3H)-dione], above 15000 nM. The same measure, in the same setting: under `CC(C)n1c(=O)cc(N[C@@H](C)CC2CCOCC2)[nH]c1=O` [Compound 14, (S)-3-isopropyl-6-((1-(tetrahydro-2H-pyran-4-yl)propan-2-yl)amino)pyrimidine-2,4(1H,3H)-dione] stands 1000 to 15000 nM; under `C[C@H](Nc1cc(=O)n(C2CCN(S(C)(=O)=O)CC2)c(=O)[nH]1)C1CCCCC1` [Compound 15, (S)-6-((1-cyclohexylethyl)amino)-3-(1-(methylsulfonyl)piperidin-4-yl)pyrimidine-2,4(1H,3H)-dione], below 1000 nM.

The subject of a further assay is adult rat ventricular myocytes. In words: Cardiomyocyte contractility assay (fractional shortening, IonOptix edge detection). The format is cell-based. To be noted: Ventricular myocyte, 0.3 uM compound, 1 Hz pacing. The protocol: Contractility of adult rat ventricular myocytes is determined by edge detection with an IonOptix contractility system. Aliquots of myocytes in Tyrode buffer (137 mM NaCl, 3.7 mM KCl, 0.5 mM MgCl2, 1.5 mM CaCl2, 4 mM HEPES, 11 mM glucose) are placed in a perfusion chamber (Series 20 RC-27NE; Warner Instruments), allowed to adhere to the coverslip, and then perfused with 37° C. Tyrode buffer. Myocytes are filed stimulated at 1 Hz and 10V. Only myocytes with clear striations, quiescent prior to pacing, with a cell length of 120-180 microns, a basal fractional shortening equal to 3-8% of the cell length, and a contraction velocity greater than 100 microns per second are used for contractility experiments. To determine the response to compounds, myocytes are first perfused for 60 seconds with Tyrodes buffer followed by 5 minutes of compound and a 140 second washout with Tyrodes buffer. Data is continuously recorded using IonOptix software. Contractility data is analyzed using lonwizard software (IonOptix). For each cell, 10-20 contractility transients were averaged and compared under basal (no compound) and compound-treated conditions. Compound activity is measured by effects on fractional shortening (FS), where fractional shortening is the ratio of the peak length of the cell at contraction divided by the basal cell length normalized to 100% for an untreated cell.
The compound `CC(C)n1c(=O)cc(N[C@@H](C)CC2CCC(F)(F)CC2)[nH]c1=O` [Compound 3, (S)-6-((1-(4,4-Difluorocyclohexyl)propan-2-yl)amino)-3-isopropylpyrimidine-2,4(1H,3H)-dione] gave an inhibition at 0.3 µM above 66%.

Staying with this assay, now noted: Ventricular myocyte, 1.0 uM compound, 1 Hz pacing.
`CC(C)n1c(=O)[nH]c(N[C@@H](C)C2CCC(F)(F)CC2)c(F)c1=O` [Compound 5, (S)-6-((1-(4,4-difluorocyclohexyl)ethyl)amino)-5-fluoro-3-isopropylpyrimidine-2,4(1H,3H)-dione] showed an inhibition at 1 µM of 33 to 66%.

The compound `CC(C)n1c(=O)cc(N[C@@H](C)C2CCC(F)(F)CC2)[nH]c1=O` [Compound 9, (S)-6-((1-(4,4-difluorocyclohexyl)ethyl)amino)-3-isopropylpyrimidine-2,4(1H,3H)-dione] registered an inhibition at 1 µM above 66%.
